Experimental data from PubChem BioAssay AID248 (DTP/NCI, 2004).
“And” between values parts separate entries of the source, which are not always exact repeats. Identical values can stand only once. Inconclusive results and toxic doses are left out. No stated cut-off is given here; in the data, active means T/C of 150% or more; inactive means T/C below 125%.

Tested on: L1210 leukemia ip in BDF1 mice, survival T/C
Experiment: NCI In Vivo Anticancer Drug Screen. Data for tumor model L1210 Leukemia (intraperitoneal) in B6D2F1 (BDF1) mice
Settings: endpoint: mean survival time, higher = longer survival
Method in brief: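 Ratio derived from survival: compound-dosed mice over vehicle-dosed mice, all bearing a transplantable tumor.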

[1] = dose: 100.0 mg/kg/injection, schedule: Q01DX001 (ip), vehicle: saline
[2] = dose: 200.0 mg/kg/injection, schedule: Q01DX001 (ip), vehicle: saline
[3] = dose: 400.0 mg/kg/injection, schedule: Q01DX001 (ip), vehicle: saline
[4] = dose: 100.0 mg/kg/injection, schedule: Q04DX003 (ip), vehicle: Klucel (hydroxypropylcellulose) (HPC)
[5] = dose: 200.0 mg/kg/injection, schedule: Q04DX003 (ip), vehicle: Klucel (hydroxypropylcellulose) (HPC)
[6] = dose: 400.0 mg/kg/injection, schedule: Q04DX003 (ip), vehicle: Klucel (hydroxypropylcellulose) (HPC)
[7] = dose: 100.0 mg/kg/injection, schedule: Q04DX003 (ip), vehicle: saline with Tween-80
[8] = dose: 200.0 mg/kg/injection, schedule: Q04DX003 (ip), vehicle: saline with Tween-80
[9] = dose: 100.0 mg/kg/injection, schedule: Q01DX009 (ip), vehicle: Klucel (hydroxypropylcellulose) (HPC)
[10] = dose: 200.0 mg/kg/injection, schedule: Q01DX009 (ip), vehicle: Klucel (hydroxypropylcellulose) (HPC)
[11] = dose: 400.0 mg/kg/injection, schedule: Q01DX009 (ip), vehicle: Klucel (hydroxypropylcellulose) (HPC)
[12] = dose: 100.0 mg/kg/injection, schedule: Q04DX002 (ip), vehicle: saline
[13] = dose: 200.0 mg/kg/injection, schedule: Q04DX002 (ip), vehicle: saline
[14] = dose: 100.0 mg/kg/injection, schedule: Q01DX009 (ip), vehicle: saline with Tween-80
[15] = dose: 200.0 mg/kg/injection, schedule: Q01DX009 (ip), vehicle: saline with Tween-80
[16] = dose: 400.0 mg/kg/injection, schedule: Q01DX009 (ip), vehicle: saline with Tween-80
[17] = dose: 100.0 mg/kg/injection, schedule: Q04DX003 (ip), vehicle: saline

Measured: T/C

O=C(COc1ccc(Cl)cc1Cl)Nc1ccc(S(=O)(=O)O)cc1
inactive: dose: 100.0 mg/kg/injection, schedule: Q04DX002 (ip), vehicle: Klucel (hydroxypropylcellulose) (HPC) 92 % of control | dose: 200.0 mg/kg/injection, schedule: Q04DX002 (ip), vehicle: Klucel (hydroxypropylcellulose) (HPC) 111 % of control | dose: 400.0 mg/kg/injection, schedule: Q04DX002 (ip), vehicle: Klucel (hydroxypropylcellulose) (HPC) 103 % of control

O=C(O)c1cc(Br)c(C(=O)O)cc1Br
inactive: [1] 100 % of control | [2] 102 % of control | [3] 96 % of control

C=C1CC2(OC1=O)C(=O)N(C)c1ccc(I)cc12 (configuration not stated)
inactive: dose: 25.0 mg/kg/injection, schedule: Q04DX002 (ip), vehicle: saline with Tween-80 101 % of control | dose: 50.0 mg/kg/injection, schedule: Q04DX002 (ip), vehicle: saline with Tween-80 97 % of control | dose: 100.0 mg/kg/injection, schedule: Q04DX002 (ip), vehicle: saline with Tween-80 102 % of control

CCOC(=O)c1cnc(C)nc1Nc1ccccc1Br
inactive: [4] 98 % of control | [5] 93 % of control | [6] 101 % of control

COc1cc(OC)c(-c2nc3ccccc3c(=O)o2)cc1OC
inactive: dose: 75.0 mg/kg/injection, schedule: Q01DX009 (ip), vehicle: Klucel (hydroxypropylcellulose) (HPC) 93 % of control | dose: 150.0 mg/kg/injection, schedule: Q01DX009 (ip), vehicle: Klucel (hydroxypropylcellulose) (HPC) 97 % of control | dose: 300.0 mg/kg/injection, schedule: Q01DX009 (ip), vehicle: Klucel (hydroxypropylcellulose) (HPC) 101 % of control

Nc1cccc2ccc3ccc4ccccc4c3c12
inactive: dose: 100.0 mg/kg/injection, schedule: Q01DX001 (ip), vehicle: Klucel (hydroxypropylcellulose) (HPC) 105 % of control | dose: 200.0 mg/kg/injection, schedule: Q01DX001 (ip), vehicle: Klucel (hydroxypropylcellulose) (HPC) 94 % of control | dose: 400.0 mg/kg/injection, schedule: Q01DX001 (ip), vehicle: Klucel (hydroxypropylcellulose) (HPC) 97 % of control

NC(CS(=O)c1ccc(Cl)cc1)C(=O)O (configuration not stated)
inactive: [7] 97 % of control | [8] 92 % of control

COc1ccc(S(=O)(=O)NC(=O)NC(=O)C=C(C)C)cc1
inactive: dose: 50.0 mg/kg/injection, schedule: Q01DX009 (ip), vehicle: Klucel (hydroxypropylcellulose) (HPC) 98 % of control | [9] 104 % of control | [4] 102 % of control | [10] 96 % of control | [5] 98 % of control | [6] 101 % of control

CN(C)c1ncnc(N)n1
inactive: [9] 91 % of control | [4] 95 % of control | [10] 88 % of control | [5] 98 % of control | [11] 90 % of control | [6] 97 % of control

CCN(CC)Cc1ccccc1COC(=O)c1ccc(OC)cc1
inactive: [12] 103 % of control | [13] 103 % of control

O=C(OC1(c2ccccc2)OC(=O)c2ccccc21)c1ccccc1C(=O)c1ccccc1 (configuration not stated)
inactive: [7] 92 % of control | [8] 91 % of control

CCCCCCCCCCCC(=O)NC(=O)N1CCOCC1
inactive: dose: 100.0 mg/kg/injection, schedule: Q01DX001 (ip), vehicle: saline with Tween-80 101 % of control | [14] 97 % of control | dose: 200.0 mg/kg/injection, schedule: Q01DX001 (ip), vehicle: saline with Tween-80 101 % of control | [15] 98 % of control | dose: 400.0 mg/kg/injection, schedule: Q01DX001 (ip), vehicle: saline with Tween-80 94 % of control | [16] 93 % of control

Cc1ccc(C#N)cc1.Cc1ccc(C#N)cc1.[Cl][Pt][Cl]
inactive: dose: 6.25 mg/kg/injection, schedule: Q04DX003 (ip), vehicle: water 109 % of control | dose: 12.5 mg/kg/injection, schedule: Q04DX003 (ip), vehicle: water 109 % of control | dose: 25.0 mg/kg/injection, schedule: Q04DX003 (ip), vehicle: water 106 % of control | dose: 50.0 mg/kg/injection, schedule: Q04DX003 (ip), vehicle: water 105 % of control

N=C(N)SC/C=C/CSC(=N)N
inactive: dose: 25.0 mg/kg/injection, schedule: Q04DX003 (ip), vehicle: saline 106 % of control | dose: 50.0 mg/kg/injection, schedule: Q04DX003 (ip), vehicle: saline 96 % of control | [17] 103 % of control and 88 % of control

Cc1ccc(S(=O)(=O)/N=S(\Cc2ccccc2)c2ccccc2)cc1 (configuration not stated)
inactive: [9] 92 % of control | [4] 93 % of control | [10] 89 % of control | [5] 97 % of control | [11] 92 % of control | [6] 98 % of control

CC(=O)OC1OC(CF)C(OC(C)=O)C1OC(C)=O (configuration not stated)
inactive: [14] 92 % of control

C/C(CC(=O)Nc1ccccn1)=N\c1ccccn1
inactive: [1] 98 % of control | [2] 92 % of control | [3] 88 % of control

Cc1ccc(NC(=S)N2CCOCC2)cc1C
inactive: [9] 94 % of control | [10] 100 % of control | [11] 94 % of control

Cc1ccc(S(=O)(=O)NC(CO)C(=O)O)cc1 (configuration not stated)
inactive: dose: 37.5 mg/kg/injection, schedule: Q01DX009 (ip), vehicle: saline 96 % of control | dose: 75.0 mg/kg/injection, schedule: Q01DX001 (ip), vehicle: saline 103 % of control | dose: 75.0 mg/kg/injection, schedule: Q01DX009 (ip), vehicle: saline 98 % of control | dose: 75.0 mg/kg/injection, schedule: Q04DX003 (ip), vehicle: saline 102 % of control | dose: 150.0 mg/kg/injection, schedule: Q01DX001 (ip), vehicle: saline 92 % of control | dose: 150.0 mg/kg/injection, schedule: Q01DX009 (ip), vehicle: saline 106 % of control | dose: 150.0 mg/kg/injection, schedule: Q04DX003 (ip), vehicle: saline 103 % of control | dose: 300.0 mg/kg/injection, schedule: Q01DX001 (ip), vehicle: saline 98 % of control | dose: 300.0 mg/kg/injection, schedule: Q04DX003 (ip), vehicle: saline 102 % of control

CCCCCCCCSC(=O)N(C(C)C)C(C)C
inactive: dose: 50.0 mg/kg/injection, schedule: Q04DX002 (ip), vehicle: saline 100 % of control | [12] 100 % of control and 105 % of control | [13] 100 % of control | dose: 400.0 mg/kg/injection, schedule: Q04DX002 (ip), vehicle: saline 108 % of control and 86 % of control

Clc1ccc(/C=N\N=C\c2ccc(Cl)c(Cl)c2)cc1Cl
inactive: dose: 25.0 mg/kg/injection, schedule: Q01DX009 (ip), vehicle: saline with Tween-80 90 % of control | dose: 50.0 mg/kg/injection, schedule: Q01DX009 (ip), vehicle: saline with Tween-80 90 % of control | [14] 95 % of control and 90 % of control | [8] 90 % of control | [16] 97 % of control | dose: 400.0 mg/kg/injection, schedule: Q04DX003 (ip), vehicle: saline with Tween-80 91 % of control

CCCCCCCC(=O)CCCCC
inactive: [14] 102 % of control | [17] 98 % of control | [15] 109 % of control | dose: 200.0 mg/kg/injection, schedule: Q04DX003 (ip), vehicle: saline 96 % of control | [16] 100 % of control | dose: 400.0 mg/kg/injection, schedule: Q04DX003 (ip), vehicle: saline 93 % of control
